Measured values: article PMC10944477 (Communications Biology, 2024)
In brackets after ≈: the same amount, converted by molar mass.

What was measured:
Tet(56-2) = target: T1, Tet(56-2) (Legionella clemsonensis, UniProt A0A222NYA8); assay: biochemical
T1 construct: gene clem_00015

Tet(56-3) = target: T2, Tet(56-3) (Legionella massiliensis, UniProt A0A078L5T0); assay: biochemical
T2 construct: gene BN59_03621

Tet(X7) = format: biochemical, uncultured bacterium; details: […] NADPH, […] MgCl2, 100 mM TAPS pH 8.5, 0.4 µM enzyme; read-out: KM (apparent)
E. coli + pZE24 TetX7_WT = assay: microbe, parasite or virus in culture; details: Escherichia coli, 20 h
Protocol: (§1) For high expression from the Plac/ara-1 promoter, 1 mM IPTG fully relieves repression by LacI[93]. Inoculated panels were incubated at 37 °C for 20 h with shaking, then scored by eye and using a plate reader.

E. coli + pZE24 Tet50_WT = assay: microbe, parasite or virus in culture; details: Escherichia coli, 20 h
Protocol: as §1

Tet(58) = details: read-out: KM (apparent); […] NADPH, […] MgCl2, 100 mM TAPS pH 8.5, 0.4 µM enzyme
Tet(56-6) = details: read-out: KM (apparent); […] NADPH, […] MgCl2, 100 mM TAPS pH 8.5, 0.4 µM enzyme
Tet(56-5) = details: read-out: KM (apparent)
Tet(56-4) = details: read-out: KM (apparent); […] NADPH, […] MgCl2, 100 mM TAPS pH 8.5, 0.4 µM enzyme
Tet(X13.2) = details: read-out: KM (apparent); […] NADPH, […] MgCl2, 100 mM TAPS pH 8.5, 0.4 µM enzyme
Tet(56-7) = details: read-out: KM (apparent)
[1] = tested on: C[C@H]1c2cccc(O)c2C(=O)C2=C(O)[C@]3(O)C(=O)C(C(N)=O)=C(O)[C@@H](N(C)C)[C@@H]3[C@@H](O)[C@@H]21; assay: purified protein; details: pH 8.5

T2 sequence (A0A078L5T0 1-387 limits assumed): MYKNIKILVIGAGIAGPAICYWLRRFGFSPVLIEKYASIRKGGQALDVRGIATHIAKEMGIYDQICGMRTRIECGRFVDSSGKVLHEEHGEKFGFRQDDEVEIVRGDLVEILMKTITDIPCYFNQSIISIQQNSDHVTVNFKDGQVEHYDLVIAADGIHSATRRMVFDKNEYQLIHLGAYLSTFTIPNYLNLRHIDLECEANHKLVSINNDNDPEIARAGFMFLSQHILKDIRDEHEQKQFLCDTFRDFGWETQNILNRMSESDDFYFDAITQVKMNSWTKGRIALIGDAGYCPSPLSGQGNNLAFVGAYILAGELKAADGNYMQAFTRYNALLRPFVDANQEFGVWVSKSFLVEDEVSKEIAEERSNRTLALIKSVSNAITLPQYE
T1 sequence (A0A222NYA8 1-387 limits assumed): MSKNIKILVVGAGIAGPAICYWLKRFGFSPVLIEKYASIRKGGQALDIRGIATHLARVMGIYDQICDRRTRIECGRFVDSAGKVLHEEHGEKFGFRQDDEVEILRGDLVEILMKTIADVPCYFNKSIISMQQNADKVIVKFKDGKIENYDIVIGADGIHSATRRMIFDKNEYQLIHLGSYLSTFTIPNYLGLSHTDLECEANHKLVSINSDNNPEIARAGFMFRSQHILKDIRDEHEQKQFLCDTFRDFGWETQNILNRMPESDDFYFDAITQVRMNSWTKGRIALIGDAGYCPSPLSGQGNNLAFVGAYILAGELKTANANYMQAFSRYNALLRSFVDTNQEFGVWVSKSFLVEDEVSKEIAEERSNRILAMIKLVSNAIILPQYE

| Molecule | Km (Tet(X7)) [µM] | MIC (E. coli + pZE24 TetX7_WT) [µg/mL] | MIC (E. coli + pZE24 Tet50_WT) [µg/mL] | Km [1] [µM] | other results |
| --- | --- | --- | --- | --- | --- |
| Cc1c2c(c(O)c3c(O)cccc13)C(=O)[C@]1(O)C(=O)C(C(N)=O)=C(O)[C@@H](N(C)C)[C@@H]1C2 [ATC, anhydrotetracycline] | – | – | – | – | IC50 (Tet(56-2)): 6.4 ± 0.9 µM; IC50 (Tet(56-3)): 30 ± 6 µM |
| C[C@H]1c2cccc(O)c2C(=O)C2=C(O)[C@]3(O)C(=O)C(C(N)=O)=C(O)[C@@H](N(C)C)[C@@H]3[C@@H](O)[C@@H]21 [DOX, doxycycline] | 5.62 ± 0.629 | 16 (≈ 36 µM) | 2 (≈ 4.5 µM) | – | – |
| CN(C)[C@@H]1C(=O)C(C(N)=O)=C(O)[C@@]2(O)C(=O)C3=C(O)c4c(O)cccc4[C@@](C)(O)[C@H]3C[C@@H]12 [TET, tetracycline] | 2.97 ± 0.68 | 32 (≈ 72 µM) | 32 (≈ 72 µM) | – | Km (Tet(58)): 0.123 ± 0.067 µM; Km (Tet(56-6)): 0.441 ± 0.218 µM; Km (Tet(56-5)): 0.508 ± 0.181 µM; Km (Tet(56-4)): 1.18 ± 0.562 µM; Km (Tet(X13.2)): 23.4 ± 9.62 µM; Km (Tet(56-7)): 2.6 ± 0.301 µM |
| CN(C)c1cc(NC(=O)CNC(C)(C)C)c(O)c2c1C[C@H]1C[C@H]3[C@H](N(C)C)C(O)=C(C(N)=O)C(=O)[C@@]3(O)C(O)=C1C2=O [tigecycline] | – | 2 (≈ 3.41 µM) | 0.5 (≈ 0.854 µM) | – | – |
| Tet(56-2) (Legionella clemsonensis) | – | – | – | 150 ± 42 | – |
| Tet(56-3) (Legionella massiliensis) | – | – | – | 14.9 ± 1.4 | – |
